Legend:
[1] = test system: monoclonal antibody 10-15-63; assay: Immunoprecipitation of 125I synthetic peptides by 10-15-63; type: binding, mouse; details: 10 ug/0.2 ml reaction mixture; 0.1% Triton X-100, 1.0% BSA, carrier serum; second antibody precipitation
Experimental: Synthetic peptides were radiolabeled with¹²⁵I (Amersham) by the chloramine T method (W.M. Hunter, "Radioimmunoassay" in D.M. Weir, Ed., Handbook of Experimental Immunology, [Blackwell Scientific Publications, 1973]). Generally, 2-6 ul of 100 mCi/ml ¹²⁵I were added to 10-50 ug of peptide in PBS, pH 7.4. Approximately 10 ug of freshly prepared (1 mg/ml in PBS) chloramine T were added to the mixture maintained at 4°C. After 5 min., [¹²⁵I]peptide was separated from free ¹²⁵I by passage of the reaction mixture through a 3 ml (bed volume) column of Biogel P-6 or P-2, as required. Fractions (200 ul each) containing [¹²⁵I]peptide were pooled and diluted into PBS containing 20% fetal calf serum. Rough estimations of¹²⁵I cpm bound to peptide were made by acid precipitation. […]
(§1) Synthetic peptides radiolabeled with¹²⁵I were diluted into PBS (pH 7.4) containing 0.1% Triton X-100 (or other detergents where indicated) and 1.0% BSA, to yield approximately 2.5-5 X 10⁵ acid-precipitable cpm per 0.1 ml. […] The precipitate was collected by centrifugation (2,000 x g, 5 min., 20°C), washed once in PBS containing 0.1% Triton X-100 and 1.0% BSA, collected by centrifugation, and counted in an LKB 128 gamma counter. […]

[2] = test system: Binding of Antibody 5-21-3 to rp41; assay: Binding inhibition assay: peptides blocking 5-21-3 binding to rp41; set-up: species or system mouse
Experimental: Additional evidence for the conformational nature of the 5-21-3 epitope was obtained using binding inhibition studies, in which synthetic peptides were ranked for their ability to inhibit binding of 5-21-3 to rp41. First, the Fab dimer of an anti-gp41 monoclonal antibody was prepared by conventional methods (Goding et al., supra). Then 100 ul of a 1 mg/ml solution of the Fab dimer in bicarbonate buffer (pH 9.6) was coated onto Immulon II microtiter plates for 1 hr at 37°C. After washing with PBS containing 0.05% Tween 20, the plates were overcoated with 200 ul of 1.0% ovalbumin in bicarbonate buffer (pH 9.6) for 1 hr at 30°C. After washing, 100 ul of rp41 enriched E. coli lysate (as described in Example 3), diluted appropriately in PBS containing 0.05% Tween 20, were allowed to bind to the Fab dimer for 2 hr at 30°C. The plates were washed and stored at 4°C.
Intact monoclonal antibody 5-21-3 IgG (purified from tissue culture fluid supporting growth of the cloned cell line 5-21-3) was titrated against the bound rp41 on the plate, and an antibody concentration was selected which yielded an A₄₉₂ value of 2.0-3.0. Usually, 0.4 pmol (0.06 ug) of 5-21-3 IgG per microtiter well was employed in these assays. Stock solutions of 5-21-3 IgG were prepared in PBS containing 0.1% Triton X-100 and 0.1% SDS. Dilutions of synthetic peptides were made in the same buffer (SDS was included in these experiments to keep peptides soluble at high concentrations).
The binding inhibition assay was performed by combining 0.15 ml of 1.2 ug/ml 5-21-3 antibody stock solution with 0.15 ml of peptide at a selected peptide concentration, and incubating the reaction mixture 1 hr at room temp. Then 0.1 ml aliquots of each reaction mixture were added to each of two wells in the microtiter tray. After a 1 hr incubation at room temp., the plates were washed, and HRPO conjugated Goat anti-mouse IgG Fc was added for 1 hr at room temp. The plates were washed, and addition of OPD for color development identified the relative amounts of 5-21-3 bound to rp41 in the microtiter wells. The reaction was stopped by addition of 100 ul of 1N H₂S0₄, and the plates were read on a Dynatech II microtiter plate reader.

[3] = test system: monoclonal antibody 5-21-3; assay: Immuno-dot blot of synthetic peptides with 5-21-3; type: binding, mouse; details: 25 ug/ml 5-21-3
Text: The western Blot procedure described in Example 1 was employed for development of immuno-dot blots using synthetic peptides, except that synthetic peptides were fixed to nitrocellulose by direct application using Drummond lambda pipettes, and air dried prior to blocking with 20% fetal calf serum in PBS (pH 7.4). Monoclonal IgG 5-21-3, and a second anti-HIV I gp41 monoclonal antibody (IgG) 10-15-63 (which recognizes an epitope distinct and separate from the epitope recognized by 5-21-3), were purified from mouse ascites using Protein A-Sepharose, and employed at the concentrations indicated.
Immuno-dot blot results are illustrated in Figure 5 where synthetic peptides were spotted onto nitrocellulose as follows:(A) 10 ug P58-130, (B) 10 ug P67-154,(C) 6 ug P121-154 and (D) 9 ug of P126-162. The strips were reacted with 25 ug/ml monoclonal antibody 5-21-3, 25 ug/ml monoclonal antibody 10-15-63, 25 ug/ml normal mouse IgG, 2% mouse (M) anti-rp41 serum, 2% normal mouse serum (NMS), 2% Rabbit (R) anti-P58-130 serum, or 2% normal rabbit serum (NRS).

[4] = test system: monoclonal antibody 5-21-3; assay: Immunoprecipitation of 125I synthetic peptides by 5-21-3; type: binding, mouse
Experimental: (§2) Synthetic peptides were radiolabeled with¹²⁵I (Amersham) by the chloramine T method (W.M. Hunter, "Radioimmunoassay" in D.M. Weir, Ed., Handbook of Experimental Immunology, [Blackwell Scientific Publications, 1973]). Generally, 2-6 ul of 100 mCi/ml ¹²⁵I were added to 10-50 ug of peptide in PBS, pH 7.4. Approximately 10 ug of freshly prepared (1 mg/ml in PBS) chloramine T were added to the mixture maintained at 4°C. After 5 min., [¹²⁵I]peptide was separated from free ¹²⁵I by passage of the reaction mixture through a 3 ml (bed volume) column of Biogel P-6 or P-2, as required. Fractions (200 ul each) containing [¹²⁵I]peptide were pooled and diluted into PBS containing 20% fetal calf serum. Rough estimations of¹²⁵I cpm bound to peptide were made by acid precipitation. An aliquot of labeled peptide was diluted into 1 ml of ice cold 50% trichloroacetic acid (TCA) overlaying a 0.45 um filter (made of mixed cellulose esters) set on a scintered glass filter connected to a vacuum apparatus. Precipitated protein was fixed onto the filter by application of vacuum, and filters were washed with ice-cold 50% TCA. Background cpm adhering non-specifically to the filter were estimated by repeating the procedure using a non-precipitating buffer. Amounts of peptide, ¹²⁵I, chloramine T, and composition of column eluting buffer were subject to change depending on conditions required to maintain solubility of each peptide.
Synthetic peptides radiolabeled with¹²⁵I were diluted into PBS (pH 7.4) containing 0.1% Triton X-100 (or other detergents where indicated) and 1.0% BSA, to yield approximately 2.5-5 X 10⁵ acid-precipitable cpm per 0.1 ml. Purified monoclonal IgG 5-21-3 and 10-15-63 were employed in the assay. Monoclonal antibodies were diluted into PBS containing 0.1% Triton X-100 (or other detergents where indicated), 1.0% BSA, and 2% normal mouse serum as a carrier immunoglobulin. Immune rabbit serum (anti-P58-130) was diluted appropriately into the same buffer except that normal rabbit serum (2%) was substituted for normal mouse serum as the carrier immunoglobulin. A reaction mixture comprising 0.1 ml [¹²⁵I] peptide (5 X l0⁵ cpm/0.1 ml) and 0.1 ml diluted antibody was incubated 1 hr at […], followed by addition of 0.1 ml of a precipitating antibody, either goat anti-mouse IgG, or goat anti-rabbit IgG, corresponding to the primary antibody. The reaction mixture was incubated 1 hr at […] and then overnight at 4°C. The precipitate was collected by centrifugation (2,000 x g, 5 min., 20°C), washed once in PBS containing 0.1% Triton X-100 and 1.0% BSA, collected by centrifugation, and counted in an LKB 128 gamma counter. […]

[5] = test system: Rabbit (R) anti-P58-130 serum; assay: Immunoprecipitation of 125I synthetic peptides by rabbit anti-P58-130 serum; type: binding
Experimental: as §2
as §1, with “ml. Purified monoclonal IgG 5-21-3 and 10-15-63 were employed in the assay. Monoclonal antibodies were diluted into PBS containing 0.1% Triton X-100 (or other detergents where indicated), 1.0% BSA, and 2% normal mouse serum as a carrier immunoglobulin.” for “ml.”

[6] = 10 ug/0.2 ml reaction mixture, 0.1% Triton X-100, 1.0% BSA, carrier serum, second antibody precipitation
[7] = serum 20 ul/0.2 ml reaction mixture, 0.1% Triton X-100, 1.0% BSA, carrier serum, second antibody precipitation

Question: For “P121-154: synthetic peptide corresponding to gp41 amino acids 121-154 (DREINNYTSLIHSLIEESQNQQEKNEQELLELDK; Transmembrane protein gp41; UniProt P04578 632-665, looked up, fragment) [Peptide P121-154]”, which “SPECIFIC PRECIPITATION (CPM) 10-15-63” value [1] is on record?
Answer: The value was 371 CPM.

Question: And the “x-fold increase of specific precipitation over non-specific precipitation, 10-15-63” value [1]?
Answer: Its value is 1.3 x-fold.

Question: What about the “binding inhibition activity restored by flanking sequence, relative to P131-154” value [2] of the same substance?
Answer: The value was 20-65 fold.

Question: What about the “binding inhibition activity, fold less active than P67-154” value [2] of the same substance?
Answer: Its value is 20 fold.

Question: And the “Molar Ratio” value ([2]; at 50% inhibition of 5-21-3 binding, mean of two experiments)?
Answer: Its value is 1,494 pmoles peptide/pmoles 5-21-3.

Question: And the “inhibition of 5-21-3 binding to rp41” value ([2]; in words (Fig. 6, Table 6))?
Answer: Its value is “potent inhibitor”.

Question: And the “dot blot reactivity with antibody 5-21-3” value ([3]; mild washing procedures)?
Answer: The value was “faint, diffuse reaction”.

Question: And the “dot blot reactivity with antibody 5-21-3” value ([3]; peptide spotted on nitrocellulose)?
Answer: Its value is “difficult to demonstrate”.

Question: And the “SPECIFIC PRECIPITATION (CPM) 5-21-3” value [4, 6]?
Answer: The value was 40,717 CPM.

Question: And the “x-fold increase of specific precipitation over non-specific precipitation, 5-21-3” value [4, 6]?
Answer: Its value is 31 x-fold.

Question: What about the “binding of the peptide by antibody 5-21-3” value ([4]; in words, summary of Table 4) of the same substance?
Answer: The value was “provided an epitope which was recognized by 5-21-3”.

Question: What about the “5-21-3 concentration required to demonstrate reactivity against the peptide” value ([4]; summary of Table 5) of the same substance?
Answer: Its value is “at least 100 ug/ml”.

Question: What about the “precipitation by rabbit anti-P58-130” value ([5]; in words, summary of Table 4) of the same substance?
Answer: Its value is “strong precipitator”.

Question: And the “SPECIFIC PRECIPITATION (CPM) RαP58-130” value [5, 7]?
Answer: Its value is 310,419 CPM.

Question: What about the “x-fold increase of specific precipitation over non-specific precipitation, RαP58-130” value [5, 7] of the same substance?
Answer: Its value is 24 x-fold.

Source: EP0335134B1, “Mouse monoclonal antibody to human immunodeficiency virus gp41 protein” (ABBOTT LABORATORIES, priority 1988, dated 1989)
